Assays:
Assay in all cases: radiometric filter-binding kinase assay
[1] = target: MINK1 (human) (UniProt Q8N4C8)
[2] = target: PIM1 (human) (UniProt P11309)
[3] = target: IKBKE (human) (UniProt Q14164); conditions: compound 10.0 µM
[4] = target: EPHB3 (human) (UniProt P54753)
[5] = target: CAMKK2 (human) (UniProt Q96RR4); conditions: compound 10.0 µM
[6] = target: BTK (human) (UniProt Q06187)
[7] = target: MAP3K7 TAB1 (human) (UniProt Q15750+O43318)
[8] = target: MAPKAPK5 (human) (UniProt Q8IW41)
MAPKAPK5 (human), sequence (Q8IW41 whole entry, looked up): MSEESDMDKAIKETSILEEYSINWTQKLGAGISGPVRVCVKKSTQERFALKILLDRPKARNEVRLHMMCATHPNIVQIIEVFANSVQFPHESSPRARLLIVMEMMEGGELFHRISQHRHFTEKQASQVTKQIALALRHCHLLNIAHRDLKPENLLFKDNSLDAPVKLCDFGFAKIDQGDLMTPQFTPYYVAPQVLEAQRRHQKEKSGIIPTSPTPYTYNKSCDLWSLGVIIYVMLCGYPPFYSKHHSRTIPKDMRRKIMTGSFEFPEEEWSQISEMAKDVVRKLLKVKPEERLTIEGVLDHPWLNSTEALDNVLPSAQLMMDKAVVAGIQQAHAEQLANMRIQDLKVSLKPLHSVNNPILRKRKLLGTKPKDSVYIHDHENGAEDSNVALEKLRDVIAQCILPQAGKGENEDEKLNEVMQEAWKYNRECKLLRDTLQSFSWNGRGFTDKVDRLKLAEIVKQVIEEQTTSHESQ

[9] = target: MAPK8 (human) (UniProt P45983)
[10] = target: MELK (human) (UniProt Q14680)
[11] = target: EPHB2 (human) (UniProt P29323)
[12] = target: MAPK15 (human) (UniProt Q8TD08)
[13] = target: MAPKAPK2 (human) (UniProt P49137)
[14] = target: MAPK14 (human) (UniProt Q16539)
MAPK14 (human), sequence (Q16539 whole entry, looked up): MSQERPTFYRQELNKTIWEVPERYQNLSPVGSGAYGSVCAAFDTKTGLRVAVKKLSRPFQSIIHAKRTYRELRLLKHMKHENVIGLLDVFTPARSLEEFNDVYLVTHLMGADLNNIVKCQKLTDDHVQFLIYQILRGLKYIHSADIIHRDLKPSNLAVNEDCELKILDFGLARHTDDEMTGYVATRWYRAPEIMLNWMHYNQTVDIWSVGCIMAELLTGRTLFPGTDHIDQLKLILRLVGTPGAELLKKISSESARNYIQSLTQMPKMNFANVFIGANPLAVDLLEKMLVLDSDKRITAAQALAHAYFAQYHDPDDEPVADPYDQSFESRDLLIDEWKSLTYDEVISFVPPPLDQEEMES

[15] = target: MAP3K11 (human) (UniProt Q16584)
[16] = target: RIPK2 (human) (UniProt O43353)
[17] = target: AURKB (human) (UniProt Q96GD4)
[18] = target: CSNK1D (human) (UniProt P48730)
CSNK1D (human), sequence (P48730 whole entry, looked up): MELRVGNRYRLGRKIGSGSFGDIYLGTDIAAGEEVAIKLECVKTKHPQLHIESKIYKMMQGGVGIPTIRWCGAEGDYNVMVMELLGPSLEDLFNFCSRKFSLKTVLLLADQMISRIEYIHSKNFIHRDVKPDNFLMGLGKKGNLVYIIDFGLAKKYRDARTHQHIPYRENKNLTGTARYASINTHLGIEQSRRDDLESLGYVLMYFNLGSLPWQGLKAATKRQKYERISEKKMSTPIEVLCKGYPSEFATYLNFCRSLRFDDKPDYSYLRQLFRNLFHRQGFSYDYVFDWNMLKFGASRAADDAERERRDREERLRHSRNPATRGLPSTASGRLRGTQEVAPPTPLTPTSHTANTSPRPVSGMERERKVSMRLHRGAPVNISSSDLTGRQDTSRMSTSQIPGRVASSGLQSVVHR

[19] = target: PAK7 (human) (UniProt Q9P286)
PAK7 (human), sequence (Q9P286 whole entry, looked up): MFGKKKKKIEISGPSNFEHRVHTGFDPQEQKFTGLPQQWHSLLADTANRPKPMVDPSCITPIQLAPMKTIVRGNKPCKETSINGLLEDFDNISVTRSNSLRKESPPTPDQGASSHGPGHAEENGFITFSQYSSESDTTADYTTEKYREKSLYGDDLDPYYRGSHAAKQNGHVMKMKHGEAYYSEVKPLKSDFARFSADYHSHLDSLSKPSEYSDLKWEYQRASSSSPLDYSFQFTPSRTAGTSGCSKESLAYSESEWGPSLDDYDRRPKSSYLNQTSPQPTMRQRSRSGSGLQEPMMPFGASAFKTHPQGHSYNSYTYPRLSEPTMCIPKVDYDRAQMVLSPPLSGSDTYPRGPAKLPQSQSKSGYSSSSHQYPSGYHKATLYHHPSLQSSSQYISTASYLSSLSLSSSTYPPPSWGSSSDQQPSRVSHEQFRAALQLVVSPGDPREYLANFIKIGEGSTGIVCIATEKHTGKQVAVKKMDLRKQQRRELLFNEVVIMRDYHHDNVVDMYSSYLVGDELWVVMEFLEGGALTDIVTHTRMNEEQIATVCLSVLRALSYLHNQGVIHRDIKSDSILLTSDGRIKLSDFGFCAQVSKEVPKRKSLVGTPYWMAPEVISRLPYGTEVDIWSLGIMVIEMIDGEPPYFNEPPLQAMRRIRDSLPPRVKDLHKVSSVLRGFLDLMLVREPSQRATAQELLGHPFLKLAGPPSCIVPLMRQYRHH

[20] = target: HIPK2 (human) (UniProt Q9H2X6)
HIPK2 (human), sequence (Q9H2X6 whole entry, looked up): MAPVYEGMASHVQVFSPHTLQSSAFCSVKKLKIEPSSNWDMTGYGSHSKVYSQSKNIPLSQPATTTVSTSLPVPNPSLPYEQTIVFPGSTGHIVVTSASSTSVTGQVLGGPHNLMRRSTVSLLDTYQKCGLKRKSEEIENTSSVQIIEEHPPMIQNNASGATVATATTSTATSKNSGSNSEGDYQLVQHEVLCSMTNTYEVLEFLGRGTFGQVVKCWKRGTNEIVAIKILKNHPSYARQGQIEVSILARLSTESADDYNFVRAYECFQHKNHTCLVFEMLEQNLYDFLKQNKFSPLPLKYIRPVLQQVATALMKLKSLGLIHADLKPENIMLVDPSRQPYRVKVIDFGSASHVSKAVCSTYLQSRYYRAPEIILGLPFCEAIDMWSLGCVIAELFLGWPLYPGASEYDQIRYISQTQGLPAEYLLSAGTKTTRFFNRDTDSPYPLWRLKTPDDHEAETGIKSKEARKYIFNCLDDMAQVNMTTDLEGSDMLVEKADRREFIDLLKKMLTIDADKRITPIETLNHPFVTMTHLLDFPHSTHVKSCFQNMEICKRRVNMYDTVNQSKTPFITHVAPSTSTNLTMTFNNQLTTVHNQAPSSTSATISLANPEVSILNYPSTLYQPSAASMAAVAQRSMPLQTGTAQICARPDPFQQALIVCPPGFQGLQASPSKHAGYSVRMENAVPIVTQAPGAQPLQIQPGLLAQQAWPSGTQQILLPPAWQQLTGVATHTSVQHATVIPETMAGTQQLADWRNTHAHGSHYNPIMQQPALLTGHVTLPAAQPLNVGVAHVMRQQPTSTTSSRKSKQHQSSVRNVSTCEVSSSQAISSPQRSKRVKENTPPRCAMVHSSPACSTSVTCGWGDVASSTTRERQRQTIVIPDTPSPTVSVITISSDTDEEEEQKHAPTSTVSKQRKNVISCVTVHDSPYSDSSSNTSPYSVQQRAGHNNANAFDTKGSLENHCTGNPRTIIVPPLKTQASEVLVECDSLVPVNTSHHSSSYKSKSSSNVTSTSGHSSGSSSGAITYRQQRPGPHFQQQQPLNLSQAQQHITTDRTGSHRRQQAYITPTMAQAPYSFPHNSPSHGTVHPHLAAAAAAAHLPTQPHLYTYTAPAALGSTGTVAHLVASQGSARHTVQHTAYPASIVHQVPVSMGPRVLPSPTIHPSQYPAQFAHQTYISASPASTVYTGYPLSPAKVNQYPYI

[21] = target: BRSK1 (human) (UniProt Q8TDC3)
[22] = target: CSK (human) (UniProt P41240)
[23] = target: IKBKB (human) (UniProt O14920)
[24] = target: PAK4 (human) (UniProt O96013)
[25] = target: PRKACA (human) (UniProt P17612)
[26] = target: MAP2K2 (human) (UniProt P36507)
[27] = target: IGF1R (human) (UniProt P08069); conditions: compound 10.0 µM
[28] = target: MAPK9 (human) (UniProt P45984)
[29] = target: EPHA4 (human) (UniProt P54764)
EPHA4 (human), sequence (P54764 whole entry, looked up): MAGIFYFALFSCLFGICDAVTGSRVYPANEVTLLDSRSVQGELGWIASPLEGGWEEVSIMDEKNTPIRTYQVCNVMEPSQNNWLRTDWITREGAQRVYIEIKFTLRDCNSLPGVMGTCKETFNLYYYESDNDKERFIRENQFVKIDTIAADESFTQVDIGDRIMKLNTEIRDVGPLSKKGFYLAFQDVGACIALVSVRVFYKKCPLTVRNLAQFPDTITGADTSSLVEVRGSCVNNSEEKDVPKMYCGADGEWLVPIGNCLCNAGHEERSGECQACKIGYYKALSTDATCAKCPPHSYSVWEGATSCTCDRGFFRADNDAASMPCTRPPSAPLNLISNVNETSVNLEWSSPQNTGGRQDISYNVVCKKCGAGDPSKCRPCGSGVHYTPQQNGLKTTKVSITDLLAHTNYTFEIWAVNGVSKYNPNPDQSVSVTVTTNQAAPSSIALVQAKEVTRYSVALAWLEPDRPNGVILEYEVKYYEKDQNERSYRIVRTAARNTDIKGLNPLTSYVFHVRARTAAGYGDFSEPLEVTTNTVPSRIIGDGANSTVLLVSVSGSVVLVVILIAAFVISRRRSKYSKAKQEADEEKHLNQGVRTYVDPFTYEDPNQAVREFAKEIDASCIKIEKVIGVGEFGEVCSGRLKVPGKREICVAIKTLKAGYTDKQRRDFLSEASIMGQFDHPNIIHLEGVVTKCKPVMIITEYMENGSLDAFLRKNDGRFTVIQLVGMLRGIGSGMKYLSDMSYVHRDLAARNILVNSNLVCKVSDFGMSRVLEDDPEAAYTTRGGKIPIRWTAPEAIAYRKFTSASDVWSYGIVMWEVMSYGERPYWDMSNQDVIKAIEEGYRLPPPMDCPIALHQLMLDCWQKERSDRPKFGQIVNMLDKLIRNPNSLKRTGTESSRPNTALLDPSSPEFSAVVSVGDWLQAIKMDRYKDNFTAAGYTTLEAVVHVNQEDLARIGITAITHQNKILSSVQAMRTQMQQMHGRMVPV

[30] = target: MAPK12 (human) (UniProt P53778)
[31] = target: YES1 (human) (UniProt P07947)
YES1 (human), sequence (P07947 whole entry, looked up): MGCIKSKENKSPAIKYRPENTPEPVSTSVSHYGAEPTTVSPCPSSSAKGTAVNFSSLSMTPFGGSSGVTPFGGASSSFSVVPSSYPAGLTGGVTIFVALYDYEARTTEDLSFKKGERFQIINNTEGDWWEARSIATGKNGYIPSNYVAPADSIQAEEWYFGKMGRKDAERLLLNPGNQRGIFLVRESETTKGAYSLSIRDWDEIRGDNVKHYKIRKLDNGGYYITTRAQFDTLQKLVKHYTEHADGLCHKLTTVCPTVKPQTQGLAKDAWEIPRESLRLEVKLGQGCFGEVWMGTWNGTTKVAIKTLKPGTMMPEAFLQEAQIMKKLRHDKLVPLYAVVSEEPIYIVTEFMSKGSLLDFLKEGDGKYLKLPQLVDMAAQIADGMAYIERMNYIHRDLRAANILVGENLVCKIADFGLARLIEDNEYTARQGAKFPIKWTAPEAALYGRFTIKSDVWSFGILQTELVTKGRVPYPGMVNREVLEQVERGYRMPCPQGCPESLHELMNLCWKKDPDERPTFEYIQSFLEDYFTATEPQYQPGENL

[32] = target: DYRK2 (human) (UniProt Q92630)
[33] = target: DYRK1A (human) (UniProt Q13627); conditions: compound 10.0 µM
[34] = target: MKNK2 (human) (UniProt Q9HBH9)
[35] = target: CaMK1 (human) (UniProt Q14012)

PIM1 (human), sequence (P11309 whole entry, looked up): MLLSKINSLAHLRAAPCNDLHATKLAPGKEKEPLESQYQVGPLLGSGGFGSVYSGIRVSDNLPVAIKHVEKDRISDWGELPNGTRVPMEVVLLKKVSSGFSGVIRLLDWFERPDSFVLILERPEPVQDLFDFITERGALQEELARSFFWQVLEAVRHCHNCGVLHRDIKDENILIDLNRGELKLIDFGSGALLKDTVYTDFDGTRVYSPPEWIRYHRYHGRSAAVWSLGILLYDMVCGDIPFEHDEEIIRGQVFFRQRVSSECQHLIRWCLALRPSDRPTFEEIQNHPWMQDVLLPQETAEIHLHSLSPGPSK

NCC(=O)Nc1ccc(-n2nc(C(F)(F)F)cc2-c2ccc3c(ccc4ccccc43)c2)cc1
residual activity ([1]; compound 1.0 µM): 78%
residual activity ([1]; compound 10.0 µM): 47%
residual activity ([2]; compound 1.0 µM): 92%
residual activity ([2]; compound 10.0 µM): 94%
residual activity [3]: 101%
residual activity ([4]; compound 1.0 µM): 72%
residual activity ([4]; compound 10.0 µM): 82%
residual activity [5]: 115%
residual activity ([6]; compound 1.0 µM): 98%
residual activity ([6]; compound 10.0 µM): 96%
residual activity ([7]; compound 1.0 µM): 74%
residual activity ([7]; compound 10.0 µM): 36%
residual activity ([8]; compound 1.0 µM): 89%
residual activity ([8]; compound 10.0 µM): 76%
residual activity ([9]; compound 1.0 µM): 107%
residual activity ([9]; compound 10.0 µM): 103%
residual activity ([10]; compound 1.0 µM): 92%
residual activity ([10]; compound 10.0 µM): 75%
residual activity ([11]; compound 1.0 µM): 82%
residual activity ([11]; compound 10.0 µM): 91%
residual activity ([12]; compound 1.0 µM): 79%
residual activity ([12]; compound 10.0 µM): 75%
residual activity ([13]; compound 1.0 µM): 91%
residual activity ([13]; compound 10.0 µM): 95%
residual activity ([14]; compound 1.0 µM): 100%
residual activity ([14]; compound 10.0 µM): 80%
residual activity ([15]; compound 1.0 µM): 94%
residual activity ([15]; compound 10.0 µM): 87%
residual activity ([16]; compound 1.0 µM): 93%
residual activity ([16]; compound 10.0 µM): 81%
residual activity ([17]; compound 1.0 µM): 93%
residual activity ([17]; compound 10.0 µM): 88%
residual activity ([18]; compound 1.0 µM): 96%
residual activity ([18]; compound 10.0 µM): 93%
residual activity ([19]; compound 1.0 µM): 87%
residual activity ([19]; compound 10.0 µM): 107%
residual activity ([20]; compound 1.0 µM): 88%
residual activity ([20]; compound 10.0 µM): 69%
residual activity ([21]; compound 1.0 µM): 83%
residual activity ([21]; compound 10.0 µM): 89%
residual activity ([22]; compound 1.0 µM): 97%
residual activity ([22]; compound 10.0 µM): 85%
residual activity ([23]; compound 1.0 µM): 87%
residual activity ([23]; compound 10.0 µM): 88%
residual activity ([24]; compound 1.0 µM): 84%
residual activity ([24]; compound 10.0 µM): 70%
residual activity ([25]; compound 1.0 µM): 100%
residual activity ([25]; compound 10.0 µM): 93%
residual activity ([26]; compound 1.0 µM): 123%
residual activity ([26]; compound 10.0 µM): 113%
residual activity [27]: 105%
residual activity ([28]; compound 1.0 µM): 102%
residual activity ([28]; compound 10.0 µM): 96%
residual activity ([29]; compound 1.0 µM): 80%
residual activity ([29]; compound 10.0 µM): 91%
residual activity ([30]; compound 1.0 µM): 94%
residual activity ([30]; compound 10.0 µM): 70%
residual activity ([31]; compound 1.0 µM): 85%
residual activity ([31]; compound 10.0 µM): 80%
residual activity ([32]; compound 1.0 µM): 89%
residual activity ([32]; compound 10.0 µM): 121%
residual activity [33]: 82%
residual activity ([34]; compound 1.0 µM): 91%
residual activity ([34]; compound 10.0 µM): 109%
residual activity ([35]; compound 1.0 µM): 109%
residual activity ([35]; compound 10.0 µM): 21%

— the kinase profiling compilation of Christmann-Franck et al. (2016)
